Where a SMILES comes first, the peptide text is derived from it.
Assays:
[1] = system: RAW 264.7 cells; assay: Cytokine levels of RAW 264.7 cells after treatment with LPS (ELISA), with or without pathway inhibitor; format: cell-based, mouse; details: for IL-1β level / IL-6 level / TNF-α level: LPS 1 μg/ml
Procedure: RAW 264.7 cells and RAW 264.7 cells stably expressing PBD-2 were pre-treated with S. Typhimurium at MOI = 10:1 for 1 h or with LPS (1 μg/ml) for 16 h, washed with PBS twice and incubated with RPMI 1640 that contained PBS or PBD-2 (10 μg/mL) for 16 h. RAW 264.7 cells stably expressing PBD-2 were maintained in RPMI 1640 that contained PBS for 16 h (n = 6 for each group). The expression levels of proinflammatory cytokines in the cell culture supernatant were determined through ELISA in accordance with the manufacturer's instruction.
In the inhibition assay, RAW 264.7 cells were pre-treated with 4 μg/ml NF-κB inhibitor (Celastrol, # ant-cls, InvivoGen®, San Diego, CA, USA) or 1 μg/ml TLR4 inhibitor (CLI-095, # tlrl-cli95, InvivoGen®, San Diego, CA, USA) for 1 h. Subsequently, RAW 264.7 cells were treated with LPS (1 μg/ml) alone or together with PBD-2 (10 μg/mL) for 16 h (n = 6 each group). RAW 264.7 cells treated with PBS were used as control. The levels of the cytokines in the supernatant of the cells were detected through ELISA.

[2] = system: S. Typhimurium; assay: Spleen and caecum weight ratios of mice infected with S. Typhimurium; details: PBD-2 expressed in TG mice; oral 2.5 × 10^8 CFU; legend: 24 h post-infection; WT n = 9, TG n = 8
Procedure: (§1) Four infection experiments were conducted to determine the resistance to S. Typhimurium of the TG mice. For body weight measurements, 7 WT and 7 TG mice were orally administered with 2.5 × 10^8 CFU of S. Typhimurium, and the body weight of each mouse was measured on days 1, 2, 3, 4, and 5 after infection. For the detection of the tissue weight ratios, bacterial loads in tissues and tissue lesions after S. Typhimurium infection, 9 WT and 8 TG mice were orally administered with 2.5 × 10^8 CFU of S. Typhimurium. The spleen, caecum and body weights of the mice were weighed at 24 h post-infection. The bacterial loads in the tissues were also measured ([26]). The spleen and caecum were weighed and homogenized in cold PBS at a ratio of 4 ml per gram of tissue and coated plates. The bacterial numbers in the homogenates were counted by serially diluting the homogenates and spreading on plates. Caeca were harvested for histopathological analysis by using the methods described above. The intestinal damage, including epithelial damage, submucosal oedema, and neutrophil aggregation, was observed.

[3] = system: S. Typhimurium; assay: Bacterial load in caecum of mice infected with S. Typhimurium; details: PBD-2 expressed in TG mice; oral 2.5 × 10^8 CFU; 24 h post-infection; n = 6; vs WT
Procedure: as §1

[4] = PBD-2 expressed by RAW 264.7–PBD-2 cells, n = 6
[5] = synthetic PBD-2 10 μg/mL with LPS 1 μg/ml, 16 h, after CLI-095 1 μg/ml, n = 6
[6] = synthetic PBD-2 10 μg/mL with LPS 1 μg/ml, 16 h, after Celastrol 4 μg/ml, n = 6
[7] = synthetic PBD-2 10 μg/mL, 16 h, n = 6

Q: Which IL-1β level [1, 4] does the source give for `CC[C@H](C)[C@H](NC(=O)[C@@H]1CSSC[C@@H]2NC(=O)[C@@H]3CCCN3C(=O)[C@H](CO)NC(=O)[C@H](Cc3ccccc3)NC(=O)[C@H](CC(N)=O)NC(=O)[C@@H]3CSSC[C@H](NC(=O)[C@H]([C@@H](C)O)NC(=O)CNC(=O)[C@H](CCC(=O)O)NC(=O)[C@H]([C@@H](C)CC)NC(=O)[C@H](CCCNC(=N)N)NC(=O)[C@H](CC(N)=O)NC(=O)[C@H](Cc4ccccc4)NC(=O)[C@H](CC(C)C)NC(=O)[C@@H]4CCCN4C2=O)C(=O)N[C@@H](Cc2ccc(O)cc2)C(=O)N[C@@H](CO)C(=O)NCC(=O)N[C@@H](CCCCN)C(=O)N[C@@H](C)C(=O)N[C@@H](CCCCN)C(=O)N[C@@H](CSSC[C@H](NC(=O)[C@@H](NC(=O)[C@H](Cc2ccc(O)cc2)NC(=O)[C@H](Cc2c[nH]cn2)NC(=O)[C@@H](N)CC(=O)O)[C@@H](C)CC)C(=O)N[C@@H](C)C(=O)N[C@@H](CCCCN)C(=O)N[C@@H](CCCCN)C(=O)NCC(=O)NCC(=O)N[C@@H]([C@@H](C)O)C(=O)N3)C(=O)N1)C(=O)N[C@@H](CCCNC(=N)N)C(=O)O` [PBD-2, Porcine beta-defensin 2] (HELM PEPTIDE1{D.H.Y.I.C.A.K.K.G.G.T.C.N.F.S.P.C.P.L.F.N.R.I.E.G.T.C.Y.S.G.K.A.K.C.C.I.R}$PEPTIDE1,PEPTIDE1,5:R3-34:R3|PEPTIDE1,PEPTIDE1,12:R3-27:R3|PEPTIDE1,PEPTIDE1,17:R3-35:R3$$$V2.0; N-terminus and C-terminus assumed) here?
A: significantly reduced in RAW 264.7 cells supplemented with PBD-2 or in the RAW 264.7–PBD-2 cells (p < 0.05)

Q: And the IL-6 level [1, 4]?
A: significantly reduced in RAW 264.7 cells supplemented with PBD-2 or in the RAW 264.7–PBD-2 cells (p < 0.05)

Q: And the TNF-α level [1, 4]?
A: significantly reduced in RAW 264.7 cells supplemented with PBD-2 or in the RAW 264.7–PBD-2 cells (p < 0.05)

Q: And the “cytokine secretion, PBD-2 itself” value ([1]; PBD-2 without stimulus (Figures 5A–C))?
A: did not affect cytokine secretion

Q: What about the “inflammatory responses of RAW 264.7 cells expressing PBD-2 versus supplemented with synthetic PBD-2” value ([1]; S. Typhimurium or LPS (Figures 5A–C)) of the same compound?
A: lower than those of the cells supplemented with synthetic PBD-2

Q: And the “secretion of IL-1β in the presence of TLR4 inhibitor” value [1, 5]?
A: did not affect the secretion of these cytokines in the presence of TLR4 inhibitor (NS, p > 0.05)

Q: And the “secretion of IL-6 in the presence of TLR4 inhibitor” value [1, 5]?
A: did not affect the secretion of these cytokines in the presence of TLR4 inhibitor (NS, p > 0.05)

Q: And the “secretion of TNF-α in the presence of TLR4 inhibitor” value [1, 5]?
A: did not affect the secretion of these cytokines in the presence of TLR4 inhibitor (NS, p > 0.05)

Q: And the “secretion of IL-1β in the presence of NF-κB inhibitor” value [1, 6]?
A: did not affect the secretion of these cytokines in the presence of NF-κB inhibitor (NS, p > 0.05)

Q: And the “secretion of IL-6 in the presence of NF-κB inhibitor” value [1, 6]?
A: did not affect the secretion of these cytokines in the presence of NF-κB inhibitor (NS, p > 0.05)

Q: What about the “secretion of TNF-α in the presence of NF-κB inhibitor” value [1, 6] of the same compound?
A: did not affect the secretion of these cytokines in the presence of NF-κB inhibitor (NS, p > 0.05)

Q: And the IL-1β level [1, 7]?
A: significantly reduced in RAW 264.7 cells supplemented with PBD-2 or in the RAW 264.7–PBD-2 cells (p < 0.05)

Q: What about the IL-6 level [1, 7] of the same compound?
A: significantly reduced in RAW 264.7 cells supplemented with PBD-2 or in the RAW 264.7–PBD-2 cells (p < 0.05)

Q: What about the TNF-α level [1, 7] of the same compound?
A: significantly reduced in RAW 264.7 cells supplemented with PBD-2 or in the RAW 264.7–PBD-2 cells (p < 0.05)

Q: And the “caecum weight ratio (organ weight/body weight), caecal enlargement” value [2]?
A: the WT mice exhibited more severe splenic atrophy and caecal enlargement compared with the TG mice on day 2 post-infection (p < 0.05)

Q: And the “spleen weight ratio (organ weight/body weight), splenic atrophy” value [2]?
A: the WT mice exhibited more severe splenic atrophy and caecal enlargement compared with the TG mice on day 2 post-infection (p < 0.05)

Q: And the “bacterial load in the caecum” value [3]?
A: smaller amount of bacterial load in the caecum compared with the WT mice (p < 0.05)

From PMC6657668, “Porcine Beta-Defensin 2 Provides Protection Against Bacterial Infection by a Direct Bactericidal Activity and Alleviates Inflammation via Interference With the TLR4/NF-κB Pathway” (Frontiers in Immunology, 2019)
